pEC50, pIC50: −log10 of the molar value. Several values for one entry are separate records, joined by “and”; a condition that tells them apart may be missing. Identical values can stand only once. Activity calls are given as the source filed them.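 The calls were made as follows: active = compounds giving half or more protection of infected cells from virus-caused growth loss, again on retest; inactive = the rest.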
Tested on: CEM cells HIV-1 protection, formazan growth assay
Assay: NCI AIDS Antiviral Assay
Settings: for pIC50: measured here: growth of uninfected CEM cells
Procedure, shortened: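 Soluble formazan readout of cell growth; CEM cells ± HIV-1; 5 drug concs. ≥50% protection → retest; ≥50% again = moderately active; reproducible 100% = confirmed active.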

Row | SMILES | pEC50 | pIC50 | outcome
1 | O=C(Nc1ccc(Cl)c(Cl)c1)OCC#CCOC(=O)Nc1ccc(Cl)c(Cl)c1 | < 3.70 | 5.05 | –
2 | CCN(CC)C(=S)SS(=O)(=O)c1cccc(N)c1 | < 3.70 | < 3.70 | –
3 | CN(O)C(=O)CCCC(=O)NCC(C)(C)CNC(=O)CCCC(=O)N(C)O | < 3.70 | < 3.70 | –
4 | CC(C)NC(=O)CCN(C(=O)O)S(=O)(=O)c1ccc(NC(=O)c2ccccc2)cc1 | < 3.24 | < 3.24 | –
5 | CN(C)/C=N\c1nncc2[nH]cnc12 | < 3.70 | 4.82 | –
6 | Cc1nn[n-]n1.N.N.N.N.N.[Cl-].[Co+3] | < 3.08 | < 3.08 | –
7 | Cc1cc(C23OC4COC(C)(C)OC4C2OC(C)(C)O3)nc2ccccc12 (stereo unspecified) | < 3.70 | 3.99 | –
8 | O=C(O)c1ccccc1C1c2ccccc2Oc2ccccc21 | < 3.70 | 4.45 | –
9 | CC(=O)Oc1cccc2c1C(=O)CCCC2 | < 3.70 | < 3.70 | –
10 | CN(C)/C=N/c1nc2ncn(CCOC(=O)c3ccccc3)c2c(=O)[nH]1 | < 3.15 | < 3.15 | –
11 | CC(=O)OC(C)(C)/C=C/C(=O)[C@](C)(O)[C@H]1[C@H](O)C[C@@]2(C)[C@@H]3CC=C4[C@@H](C[C@H](O)[C@H](O)C4(C)C)[C@]3(C)C(=O)C[C@]12C | < 6.70 | 7.04 | –
12 | O=C(NCCCN1CCN(CCCNC(=O)Nc2cc(Cl)ccc2Cl)CC1)Nc1cc(Cl)ccc1Cl | < 6.02 | < 6.02 | –
13 | O=[N+]([O-])c1ccc(/C=C/c2csnn2)cc1 | < 3.25 | 3.64 | –
14 | N#CCCC(C#N)(CCC#N)c1ccccc1 | < 3.09 | < 3.09 | –
15 | CN(C)C(=O)OCOP(=O)(OCOC(=O)N(C)C)OCC1CCC(n2ccc(=O)[nH]c2=O)O1 (stereo unspecified) | < 3.70 | 4.03 | –
16 | CNc1ccc(/C=C2\C=Cc3ccccc32)cc1Br | < 4.92 | < 4.92 | –
17 | N=C(N)c1ccc2oc3ccc(C(=N)N)cc3c(=O)c2c1 | – | – | inactive
18 | COc1ccc(-c2c(C#N)c(N)nc3c2CCS(=O)(=O)c2ccccc2-3)cc1 | < 3.70 | < 3.70 | –
19 | O=C1c2ccccc2NC2(C(=O)Nc3ccccc32)N1N1CCOCC1 (stereo unspecified) | < 3.70 | < 3.70 | –
20 | Nc1cc(C(=O)Nc2ccc(C3=NCCN3)cc2)cc(C(=O)Nc2ccc(C3=NCCN3)cc2)c1 | 4.79 | 3.84 | –
21 | CN(C)c1cc(CN[C@@H](Cc2cn(C(c3ccccc3)(c3ccccc3)c3ccccc3)cn2)C(=O)O)nc(CN[C@@H](Cc2cn(C(c3ccccc3)(c3ccccc3)c3ccccc3)cn2)C(=O)O)c1 | < 4.00 | 4.71 | –

Row | SMILES | pEC50 | pIC50 | outcome
22 | CCOCCOCCCNCC(=O)N1CCN(C(=O)CNCCCOCCOCC)CC1 | – | – | inactive
23 | CCCCNC1C2CCC(C)(C1O)C2(C)C (stereo unspecified) | < 3.70 | 3.76 | –
24 | C[C@]12CCC(OS(=O)(=O)O)CC1=CCC1C2CC[C@@]2(C)C1CC[C@@H]2C(=O)O (stereo partly specified) | < 3.37 | 3.38 | –
25 | Cc1nc(/C=C2\C(=O)C=Cc3ccccc32)c(O)o1 | < 3.99 | < 3.99 | –
26 | O=C(O[C@@H]1C(=O)N2CC[C@H]3OC(O)[C@@H]1[C@H]32)c1ccc([N+](=O)[O-])cc1 (stereo partly specified) | < 3.70 | < 3.70 | –
27 | Oc1ccc[n+](Cc2ccccc2)c1 | < 3.70 | < 3.70 | –
28 | CCOC(=O)C1(C#N)C(c2ccccc2)CC(O)(c2ccc(Cl)cc2)C(C(=O)c2ccc(Cl)cc2)C1c1ccccc1 (stereo unspecified) | < 4.92 | < 4.92 | –
29 | O=C(N/N=C\c1ccc[nH]1)c1ccncc1 | < 3.70 | < 3.70 | –
30 | O=C(OCC1CCCN2CCCCC12)c1ccncc1 (stereo unspecified) | 4.72 | < 3.70 | –
31 | O=C(O)c1cc(N=Nc2ccc(CCc3ccc(N=Nc4cc(C(=O)O)c(O)cc4O)cc3S(=O)(=O)O)c(S(=O)(=O)O)c2)c(O)cc1O | 4.15 | 3.87 | –
32 | Cc1cc(=O)n2nc(CSc3nnc(Sc4cc(O)ccc4O)s3)sc2n1 | < 3.70 | 4.54 | –
33 | CCn1c(CSc2nc(-c3ccccc3)c(-c3ccccc3)[nH]2)n[nH]c1=S | < 4.04 | 4.28 | –
34 | CCOCC(/C=N/N=C(N)N)=N\N=C(N)N | < 3.12 | < 3.12 | –
35 | N/N=C1\CC(c2ccccc2)Oc2ccccc21 (stereo unspecified) | < 3.70 | 3.74 | –
36 | FC(F)(F)c1nc(Cl)nc2nc[nH]c12 | < 3.70 | 4.01 | –
37 | O=S(=O)(O)c1cc(N=Nc2ccc(/C=C/c3ccc(N=Nc4cc(S(=O)(=O)O)c5cccnc5c4O)cc3S(=O)(=O)O)c(S(=O)(=O)O)c2)ccc1/C=C/c1ccc(N=Nc2cc(S(=O)(=O)O)c3cccnc3c2O)cc1S(=O)(=O)O | 6.08 | 5.71 | –
38 | CCCCOP(=O)(/C=C/c1ccc([N+](=O)[O-])cc1)OCCCC | < 4.68 | < 4.68 | –
39 | CN1C(=O)c2ccccc2C(O)(c2ccccc2)C1(O)c1ccccc1 (stereo unspecified) | < 3.70 | 4.19 | –
40 | CC(=O)c1c(O)c(C)c(O)c2c1OC1=CC(=O)C(C(C)=O)C(=O)C12C (stereo unspecified) | < 3.70 | – | –
41 | C/C(O)=C(/C=N\C(=S)Nc1ccc(S(=O)(=O)Nc2nccs2)cc1)C(=O)Nc1ccccc1C | < 3.70 | 4.52 | –
42 | COc1ccc(-c2cc3ccccc3oc2=O)cc1OC | < 3.70 | 4.38 | –

Row | SMILES | pEC50 | pIC50 | outcome
43 | COc1ccc(C2c3cc4c(cc3OC(NNS(=O)(=O)c3ccc(C)cc3)C2C)OCO4)cc1 (stereo unspecified) | < 3.70 | 4.58 | –
44 | NC1=C(Cl)C(=O)c2ccccc2C1=O | < 3.70 | – | –
45 | CCOc1ccccc1NC(=O)C1=C(C)NC(C)=C(C(=O)Nc2ccccc2OCC)C1c1cccc([N+](=O)[O-])c1 | < 4.89 | < 4.89 | –
46 | O=C(CNc1ccccn1)Nn1cnc2ccc(S(=O)(=O)Nc3ccccn3)cc2c1=O | < 3.70 | < 3.70 | –
47 | O=C1CC(c2ccc(Cl)cc2)NC(=O)N1CCCl (stereo unspecified) | < 3.70 | < 3.70 | –
48 | CN1CCc2cc(O)c3cc2C1Cc1ccc(cc1)Oc1cc(ccc1O)CC1c2c(cc4c(c2O3)OCO4)CCN1C (stereo unspecified) | – | – | inactive
49 | C=C(CCCC(C)OCOCCOC)[Si](C)(C)C (stereo unspecified) | < 4.02 | < 4.02 | –
50 | COC1OC2=CCC3C(=O)NC(=O)C3C2[C@H](OCc2ccccc2)C1OCc1ccccc1 (stereo partly specified) | – | – | inactive
51 | CN(C)c1nc(N(C)C)nc(N(C)C23CC4CC(CC(C4)C2)C3)n1 | < 3.70 | 4.19 | –
52 | C/C(CCn1[nH]c(=O)ccc1=O)=N\Nc1ccc([N+](=O)[O-])cc1[N+](=O)[O-] | – | 4.70 | inactive
53 | CCOC(=O)/C(=C\c1ccc(OCc2ccccc2)c(OC)c1)C(=O)c1ccccc1 | < 4.90 | < 4.90 | –
54 | CC1(C)CCCCCCCCCC(C)(CCCO)C1=O (stereo unspecified) | < 3.70 | 4.57 | –
55 | Clc1ccc2nc3occ(Br)c3cc2c1 | < 4.88 | < 4.88 | –
56 | CC(=O)Oc1c2c(c(OC(C)=O)c3c1n(C(C)=O)c1ccccc1n3C(C)=O)n(C(C)=O)c1ccccc1n2C(C)=O | < 4.48 | 5.23 | –
57 | O=C(Nc1cccc2c(OC(=O)C(Cl)Cl)c(N=Nc3ccc(S(=O)(=O)Nc4nccs4)cc3)cc(N=Nc3ccc(S(=O)(=O)Nc4nccs4)cc3)c12)C(Cl)Cl (tested in a mixture with another compound) | 4.33 and < 4.30 | – | inactive
58 | O=CC1CCCc2ccccc21 (stereo unspecified) | < 4.35 | < 4.35 | –
59 | COc1ccc2c3c([nH]c2c1[N+](=O)[O-])C(C)=NCC3 | – | – | inactive
60 | OCCN(CCO)c1nc(N(CCO)CCO)nc(N(CCO)CCO)n1 | < 3.70 | < 3.70 | –
61 | Cc1ccc(C(=O)CCC2C(=O)CC(C)(C)CC2=O)cc1 | < 4.04 | 4.19 | –
62 | COC(=O)C1([Se]c2ccccc2)CCN2CCC(OCc3ccccc3[N+](=O)[O-])C21 (stereo unspecified) | < 3.70 | < 3.70 | –
63 | Cc1nc2ccccn2c1N=Nc1ccc(C(=O)NN)cc1 | < 4.47 | < 4.47 | –

Row | SMILES | pEC50 | pIC50 | outcome
64 | O=C(Nc1ccc(Cl)cc1C(F)(F)F)C(=O)C1CCCS1(=O)=O (stereo unspecified) | – | – | inactive
65 | CN1CCC23c4c5cc(-c6cc7c8c(c6O)OC6C(O)C=CC9C(C7)N(C)CCC896)c(O)c4OC2C(O)C=CC3C1C5 (stereo unspecified) | – | – | inactive
66 | Cc1c(C)c2cc3ccoc3cc2oc1=O | < 4.08 | < 4.08 | –
67 | COC(=O)CCCC(=O)C(=Nc1c(Cl)cccc1Cl)NNc1ccc(Cl)cc1 | < 3.70 | 4.45 | –
68 | Cc1cc(C)c(C2=NO[C@H]3c4ccccc4OC[C@@H]23)c(C)c1 | < 4.61 | < 4.61 | –
69 | N/C(=N\N=C/c1ccc(OCc2ccccc2)cc1)NO | – | – | inactive
70 | CN1C(=O)CC(CC(=O)C2CCCCC2=O)CC1=O (stereo unspecified) | < 3.70 | < 3.70 | –
71 | CN(C)CCC(=O)N1C/C(=C\c2ccc(Cl)c(Cl)c2)C(=O)/C(=C/c2ccc(Cl)c(Cl)c2)C1 | < 4.47 | 7.36 | –
72 | NCCCCCCn1c(-c2ccc(Br)cc2)csc1=Nc1ccccc1 | < 3.70 | 5.45 | –
73 | Brc1cccc(C=NC23CC4CC(CC(C4)C2)C3)c1 | < 4.79 | < 4.79 | –
74 | O=C1SC(c2ccc(Cl)cc2)(c2ccc(Cl)cc2)c2ccccc21 | < 3.70 | 4.03 | –
75 | OCCN(/N=C\c1ccc2ccccc2c1)C1=NCCN1 | < 3.70 | 4.50 | –
76 | Fc1ccc(Oc2nc3ccccc3nc2-c2ccccc2)cc1 | – | – | inactive
77 | CC(C)C1(Cl)CCC2C3(C)CCCC(C)(C(=O)O)C3CC(Cl)C2(Cl)C1Cl (stereo unspecified) | < 3.70 | 4.38 | –
78 | CSc1c(S(C)=O)c2ccccc2n1C (stereo unspecified) | < 3.70 | < 3.70 | –
79 | C=C(C)C(=O)O[C@H]1CC2(CO)O[C@@H]2CC/C(COC(C)=O)=C/C2OC(=O)C(=C)[C@@H]21 (stereo partly specified) | < 3.70 | 5.36 | –
80 | COc1ccc2[nH]c(C(O)(Cc3cccnc3)Cc3cccnc3)cc2c1 | 3.72 | < 3.70 | –
81 | Cc1cc2c(cc1Cl)SSc1cc(Cl)c(C)cc1S(=O)(=O)Nc1nc(N)nn1C(O)n1nc(N)nc1NS2(=O)=O | 4.05 | < 4.00 | –
82 | COc1cc(O)c2c(=O)oc3cc(O)cc(C)c3c2c1 | < 4.46 | < 4.46 | –
83 | O=c1onc2n1-c1ccc(Cl)cc1C(=S)N1CSCC21 (stereo unspecified) | < 3.70 | 4.49 | –
84 | O=C(Oc1ccc(N=Cc2ccc3c(c2)OCO3)cc1)Oc1ccc(N=Cc2ccc3c(c2)OCO3)cc1 | – | – | inactive

From PubChem BioAssay AID179 (DTP/NCI, 2004)
